Data as given in ChEMBL document CHEMBL4831516, “Development of Membrane-Active Honokiol/Magnolol Amphiphiles as Potent Antibacterial Agents against Methicillin-Resistant Staphylococcus aureus (MRSA)” (J Med Chem, 2021).

Key:
[1] = Selectivity index, HC50 for hemolytic activity in sheep RBC to MIC for antibacterial activity against Staphylococcus aureus ATCC29213; type: toxicity; settings: sheep red blood cells (erythrocytes), read-out: Selectivity Index
Staphylococcus aureus [2] = experiment: Antibacterial activity against methicillin-resistant Staphylococcus aureus clinical isolate M-20 assessed as inhibition of visible growth incubated for 16 to 18 hrs by CLSI method; type: functional; settings: time 16-18 hrs, read-out: MIC100
Staphylococcus aureus [3] = experiment: Antibacterial activity against methicillin-resistant Staphylococcus aureus clinical isolate M-13 assessed as inhibition of visible growth incubated for 16 to 18 hrs by CLSI method; type: functional; settings: time 16-18 hrs, read-out: MIC100
Staphylococcus aureus [4] = experiment: Antibacterial activity against methicillin-resistant Staphylococcus aureus clinical isolate M-12 assessed as inhibition of visible growth incubated for 16 to 18 hrs by CLSI method; type: functional; settings: time 16-18 hrs, read-out: MIC100
Salmonella enterica [5] = experiment: Antibacterial activity against Salmonella enterica 349812 assessed as inhibition of visible growth incubated for 16 to 18 hrs by CLSI method; type: functional; settings: time 16-18 hrs, read-out: MIC100
[6] = tested on: Stenotrophomonas maltophilia; experiment: Antibacterial activity against Stenotrophomonas maltophilia assessed as inhibition of visible growth incubated for 16 to 18 hrs by CLSI method; type: functional; settings: time 16-18 hrs, read-out: MIC100
[7] = Hemolytic activity in sheep RBC assessed as hemolysis incubated for 1 hr; type: ADME, cell-based, Ovis aries, Erythrocyte; settings: sheep red blood cells (erythrocytes)
Salmonella enterica [8] = experiment: Antibacterial activity against Salmonella enterica 8389 assessed as inhibition of visible growth incubated for 16 to 18 hrs by CLSI method; type: functional; settings: time 16-18 hrs, read-out: MIC100
Escherichia coli = experiment: Antibacterial activity against Escherichia coli ATCC25922 assessed as inhibition of visible growth incubated for 16 to 18 hrs by CLSI method; type: functional; settings: time 16-18 hrs, read-out: MIC100
Staphylococcus aureus [9] = experiment: Antibacterial activity against methicillin-resistant Staphylococcus aureus clinical isolate M-16 assessed as inhibition of visible growth incubated for 16 to 18 hrs by CLSI method; type: functional; settings: time 16-18 hrs, read-out: MIC100
Staphylococcus aureus [10] = experiment: Antibacterial activity against Staphylococcus aureus ATCC29213 assessed as inhibition of visible growth incubated for 16 to 18 hrs by CLSI method; type: functional; settings: time 16-18 hrs, read-out: MIC100
Staphylococcus aureus [11] = experiment: Antibacterial activity against methicillin-resistant Staphylococcus aureus clinical isolate M-11 assessed as inhibition of visible growth incubated for 16 to 18 hrs by CLSI method; type: functional; settings: time 16-18 hrs, read-out: MIC100
Enterococcus faecalis = experiment: Antibacterial activity against Enterococcus faecalis ATCC29212 assessed as inhibition of visible growth incubated for 16 to 18 hrs by CLSI method; type: functional; settings: time 16-18 hrs, read-out: MIC100
Bacillus subtilis = experiment: Antibacterial activity against Bacillus subtilis assessed as inhibition of visible growth incubated for 16 to 18 hrs by CLSI method; type: functional; settings: time 16-18 hrs, read-out: MIC100
Staphylococcus aureus [12] = experiment: Antibacterial activity against methicillin-resistant Staphylococcus aureus clinical isolate M-14 assessed as inhibition of visible growth incubated for 16 to 18 hrs by CLSI method; type: functional; settings: time 16-18 hrs, read-out: MIC100
Micrococcus luteus = experiment: Antibacterial activity against Micrococcus luteus assessed as inhibition of visible growth incubated for 16 to 18 hrs by CLSI method; type: functional; settings: time 16-18 hrs, read-out: MIC100
Staphylococcus aureus [13] = experiment: Antibacterial activity against methicillin-resistant Staphylococcus aureus clinical isolate M-18 assessed as inhibition of visible growth incubated for 16 to 18 hrs by CLSI method; type: functional; settings: time 16-18 hrs, read-out: MIC100
Staphylococcus aureus [14] = experiment: Antibacterial activity against methicillin-resistant Staphylococcus aureus clinical isolate M-17 assessed as inhibition of visible growth incubated for 16 to 18 hrs by CLSI method; type: functional; settings: time 16-18 hrs, read-out: MIC100
Staphylococcus aureus [15] = experiment: Antibacterial activity against methicillin-resistant Staphylococcus aureus clinical isolate M-15 assessed as inhibition of visible growth incubated for 16 to 18 hrs by CLSI method; type: functional; settings: time 16-18 hrs, read-out: MIC100
Staphylococcus aureus [16] = experiment: Antibacterial activity against methicillin-resistant Staphylococcus aureus clinical isolate M-19 assessed as inhibition of visible growth incubated for 16 to 18 hrs by CLSI method; type: functional; settings: time 16-18 hrs, read-out: MIC100

| Compound | selectivity ratio [1] | MIC (Staphylococcus aureus [2]) [µg/mL] | MIC (Staphylococcus aureus [3]) [µg/mL] | MIC (Staphylococcus aureus [4]) [µg/mL] | MIC (Salmonella enterica [5]) [µg/mL] | MIC [6] [µg/mL] | HC50 at 1 h [7] [µg/mL] | MIC (Salmonella enterica [8]) [µg/mL] | MIC (Escherichia coli) [µg/mL] | MIC (Staphylococcus aureus [9]) [µg/mL] | MIC (Staphylococcus aureus [10]) [µg/mL] | MIC (Staphylococcus aureus [11]) [µg/mL] | MIC (Enterococcus faecalis) [µg/mL] | MIC (Bacillus subtilis) [µg/mL] | MIC (Staphylococcus aureus [12]) [µg/mL] | MIC (Micrococcus luteus) [µg/mL] | MIC (Staphylococcus aureus [13]) [µg/mL] | MIC (Staphylococcus aureus [14]) [µg/mL] | MIC (Staphylococcus aureus [15]) [µg/mL] | MIC (Staphylococcus aureus [16]) [µg/mL] |
| --- | --- | --- | --- | --- | --- | --- | --- | --- | --- | --- | --- | --- | --- | --- | --- | --- | --- | --- | --- | --- |
| C=CCc1ccc(OCCC[N+](C)(C)CC(=O)NCCCCCC)c(-c2ccc(OCCC[N+](C)(C)CC(=O)NCCCCCC)c(CC=C)c2)c1.[Br-].[Br-] | 269 | 4 | 4 | 4 | 4 | 8 | 1080 | 2 | 8 | 4 | 4 | 4 | 4 | 2 | 4 | 2 | 4 | 4 | 4 | 4 |
| C=CCc1ccc(O)c(-c2cc(CC=C)ccc2OCC[N+](C)(C)CC(=O)NCCCC)c1.[Br-] | 143 | 4 | 8 | 8 | 32 | 32 | 573 | 32 | 32 | 4 | 4 | 8 | 8 | 2 | 4 | 4 | 4 | 4 | 4 | 4 |
| C=CCc1ccc(OCCCC[N+](C)(C)CC(=O)NCCCCC)c(-c2ccc(OCCCC[N+](C)(C)CC(=O)NCCCCC)c(CC=C)c2)c1.[Br-].[Br-] | 112 | 2 | 2 | 2 | 8 | 16 | 448 | 8 | 16 | 2 | 4 | 1 | 2 | 2 | 2 | 2 | 2 | 2 | 2 | 2 |
| C=CCc1ccc(OCCC[N+](C)(C)CC(=O)NCCC)c(-c2ccc(OCCC[N+](C)(C)CC(=O)NCCC)c(CC=C)c2)c1.[Br-].[Br-] | 341 | 2 | 4 | 4 | 32 | 16 | 682 | 32 | 16 | 2 | 2 | 4 | 2 | 1 | 2 | 4 | 4 | 4 | 2 | 4 |
| C=CCc1ccc(O)c(-c2cc(CC=C)ccc2OCCCC[N+](C)(C)CC(=O)NCCCCC)c1.[Br-] | 322 | 4 | 4 | 4 | 32 | 32 | 643 | 32 | 8 | 4 | 2 | 4 | 8 | 2 | 4 | 4 | 4 | 4 | 4 | 4 |
| C=CCc1ccc(O)c(-c2cc(CC=C)ccc2OCCCC[N+](C)(C)CC(=O)NCCCC)c1.[Br-] | 277 | 1 | 2 | 2 | 16 | 8 | 555 | 16 | 8 | 1 | 2 | 4 | 2 | 0.5 | 2 | 0.5 | 1 | 2 | 1 | 1 |
